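Results reflect a 48-hour exposure of cells in 96-well plates to compound at five concentrations. The concentration for full growth arrest is given as TGI.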
Legend:
Assay in all cases: inhibition of tumour cell growth, NCI panel, 48 h
[1] = tested on: 786-0 renal
[2] = tested on: A549 NSCLC
[3] = tested on: ACHN renal
[4] = tested on: CAKI-1 renal
[5] = tested on: CCRF-CEM leukemia
[6] = tested on: COLO 205 colon
[7] = tested on: DU-145 prostate
[8] = tested on: EKVX NSCLC
[9] = tested on: HCC-2998 colon
[10] = tested on: HCT-116 colon
[11] = tested on: HCT-15 colon
[12] = tested on: HOP-62 NSCLC
[13] = tested on: HOP-92 NSCLC
[14] = tested on: HS 578T breast
[15] = tested on: HT29 colon
[16] = tested on: IGROV1 ovarian
[17] = tested on: K-562 leukemia
[18] = tested on: KM12 colon
[19] = tested on: LOX IMVI melanoma
[20] = tested on: MCF7 breast
[21] = tested on: MDA-MB-231 breast
[22] = tested on: MDA-MB-435
[23] = tested on: MDA-N
[24] = tested on: MOLT-4 leukemia
[25] = tested on: NCI-H226 lung
[26] = tested on: NCI-H23 lung
[27] = tested on: NCI-H460 lung
[28] = tested on: NCI-H522 lung
[29] = tested on: NCI/ADR-RES ovarian
[30] = tested on: OVCAR-3 ovarian
[31] = tested on: OVCAR-4 ovarian
[32] = tested on: OVCAR-5 ovarian
[33] = tested on: OVCAR-8 ovarian
[34] = tested on: PC-3 prostate
[35] = tested on: RPMI-8226 leukemia
[36] = tested on: RXF 393 renal
[37] = tested on: SF-268 CNS
[38] = tested on: SF-295 CNS
[39] = tested on: SF-539 CNS
[40] = tested on: SK-MEL-2 melanoma
[41] = tested on: SK-MEL-28 melanoma
[42] = tested on: SK-MEL-5 melanoma
[43] = tested on: SK-OV-3 ovarian
[44] = tested on: SN12C renal
[45] = tested on: SNB-19 CNS
[46] = tested on: SNB-75 CNS
[47] = tested on: SR leukemia
[48] = tested on: SW-620 colon
[49] = tested on: T-47D breast
[50] = tested on: TK-10 renal
[51] = tested on: U251 CNS
[52] = tested on: UACC-257 melanoma
[53] = tested on: UACC-62 melanoma
[54] = tested on: UO-31 renal
[55] = tested on: A498 renal
[56] = tested on: M14 melanoma

Question: How did the TGI [1] turn out when C=C1C(=O)O[C@H]2C/C(C)=C/CC[C@]3(C)CCC[C@](C)(CC[C@@H]12)O3 was run?
Answer: Its TGI is 16.4 µM.

Question: What about the TGI [2] of the same molecule?
Answer: Its TGI is greater than 50 µM.

Question: And the TGI [3]?
Answer: The TGI was 17.2 µM.

Question: What about the TGI [4] of the same molecule?
Answer: Its TGI is 25.7 µM.

Question: What about the TGI [5] of the same molecule?
Answer: The TGI was 3.38 µM.

Question: What about the TGI [6] of the same molecule?
Answer: Its TGI is 14.8 µM.

Question: What about the TGI [7] of the same molecule?
Answer: Its TGI is greater than 50 µM.

Question: What about the TGI [8] of the same molecule?
Answer: The TGI was 22.7 µM.

Question: And the TGI [9]?
Answer: The TGI was 14.5 µM.

Question: What about the TGI [10] of the same molecule?
Answer: The TGI was 20.1 µM.

Question: And the TGI [11]?
Answer: The TGI was greater than 50 µM.

Question: What about the TGI [12] of the same molecule?
Answer: The TGI was greater than 50 µM.

Question: And the TGI [13]?
Answer: The TGI was 15.2 µM.

Question: What about the TGI [14] of the same molecule?
Answer: The TGI was 48 µM.

Question: And the TGI [15]?
Answer: The TGI was 15.2 µM.

Question: And the TGI [16]?
Answer: Its TGI is 14.5 µM.

Question: And the TGI [17]?
Answer: Its TGI is 18.8 µM.

Question: And the TGI [18]?
Answer: The TGI was 17.4 µM.

Question: And the TGI [19]?
Answer: The TGI was greater than 50 µM.

Question: And the TGI [20]?
Answer: Its TGI is 49.4 µM.

Question: What about the TGI [21] of the same molecule?
Answer: Its TGI is 46.2 µM.

Question: And the TGI [22]?
Answer: Its TGI is 15.6 µM.

Question: What about the TGI [23] of the same molecule?
Answer: Its TGI is greater than 50 µM.

Question: What about the TGI [24] of the same molecule?
Answer: Its TGI is 15.7 µM.

Question: What about the TGI [25] of the same molecule?
Answer: The TGI was 27.7 µM.

Question: And the TGI [26]?
Answer: The TGI was 27.2 µM.

Question: And the TGI [27]?
Answer: The TGI was 16.9 µM.

Question: And the TGI [28]?
Answer: The TGI was 13 µM.

Question: What about the TGI [29] of the same molecule?
Answer: The TGI was 15.8 µM.

Question: And the TGI [30]?
Answer: The TGI was 18.5 µM.

Question: What about the TGI [31] of the same molecule?
Answer: Its TGI is 43.7 µM.

Question: And the TGI [32]?
Answer: Its TGI is greater than 50 µM.

Question: What about the TGI [33] of the same molecule?
Answer: Its TGI is 15.2 µM.

Question: And the TGI [34]?
Answer: The TGI was 41.5 µM.

Question: And the TGI [35]?
Answer: The TGI was 20 µM.

Question: And the TGI [36]?
Answer: Its TGI is 18.4 µM.

Question: And the TGI [37]?
Answer: The TGI was 16.3 µM.

Question: And the TGI [38]?
Answer: Its TGI is greater than 50 µM.

Question: What about the TGI [39] of the same molecule?
Answer: Its TGI is 20.7 µM.

Question: What about the TGI [40] of the same molecule?
Answer: Its TGI is 17.9 µM.

Question: What about the TGI [41] of the same molecule?
Answer: The TGI was 15.8 µM.

Question: What about the TGI [42] of the same molecule?
Answer: The TGI was 13.8 µM.

Question: And the TGI [43]?
Answer: The TGI was greater than 50 µM.

Question: And the TGI [44]?
Answer: Its TGI is 34.2 µM.

Question: And the TGI [45]?
Answer: The TGI was greater than 50 µM.

Question: And the TGI [46]?
Answer: The TGI was 43.6 µM.

Question: What about the TGI [47] of the same molecule?
Answer: Its TGI is 22.5 µM.

Question: What about the TGI [48] of the same molecule?
Answer: The TGI was 17.7 µM.

Question: What about the TGI [49] of the same molecule?
Answer: The TGI was 25.9 µM.

Question: What about the TGI [50] of the same molecule?
Answer: The TGI was 18.4 µM.

Question: And the TGI [51]?
Answer: The TGI was 17.7 µM.

Question: And the TGI [52]?
Answer: Its TGI is 21.7 µM.

Question: What about the TGI [53] of the same molecule?
Answer: Its TGI is 24.4 µM.

Question: What about the TGI [54] of the same molecule?
Answer: The TGI was 15.7 µM.

Question: What does the source list for CCOC(=O)[C@@H]1ON2O[C@H](OC3CCCCC3c3ccccc3)C[C@H]3OC(=O)[C@@H]1C32 (stereo not given in full)?
Answer: TGI [1]: > 100 µM; TGI [55]: > 100 µM; TGI [2]: > 100 µM; TGI [3]: > 100 µM; TGI [4]: > 100 µM; TGI [5]: 0.614 µM; TGI [6]: > 100 µM; TGI [7]: > 100 µM; TGI [8]: > 100 µM; TGI [9]: > 100 µM; TGI [10]: > 100 µM; TGI [11]: > 100 µM; TGI [12]: > 100 µM; TGI [13]: > 100 µM; TGI [14]: > 100 µM; TGI [15]: > 100 µM; TGI [16]: > 100 µM; TGI [17]: > 100 µM; TGI [18]: > 100 µM; TGI [19]: > 100 µM; TGI [56]: > 100 µM; TGI [20]: > 100 µM; TGI [21]: > 100 µM; TGI [22]: > 100 µM; TGI [23]: > 100 µM; TGI [24]: > 100 µM; TGI [25]: > 100 µM; TGI [26]: > 100 µM; TGI [27]: > 100 µM; TGI [28]: > 100 µM; TGI [29]: > 100 µM; TGI [30]: > 100 µM; TGI [32]: > 100 µM; TGI [33]: > 100 µM; TGI [35]: > 100 µM; TGI [36]: > 100 µM; TGI [37]: > 100 µM; TGI [38]: > 100 µM; TGI [39]: > 100 µM; TGI [42]: > 100 µM; TGI [43]: > 100 µM; TGI [44]: > 100 µM; TGI [46]: > 100 µM; TGI [47]: > 100 µM; TGI [48]: > 100 µM; TGI [49]: > 100 µM; TGI [50]: > 100 µM; TGI [51]: > 100 µM; TGI [52]: > 100 µM; TGI [53]: > 100 µM; TGI [54]: > 100 µM

Source: PubChem BioAssay (NCI)
